The NIST ThermoML archive (doi:10.1016/j.tca.2019.178383)
± gives the expanded uncertainty stated by the source.

Key:
[1] = for surface tension liquid-gas: Maximal bubble pressure; for mass density: 100 kPa, Liquid, Vibrating tube method
[2] = xn = mol fraction of the nth substance listed; details: x2 = 0; for surface tension liquid-gas: Maximal bubble pressure; for mass density: 100 kPa, Liquid, Vibrating tube method

Compound | surface tension liquid-gas ([1]; 288.15 K) [mN/m] | mass density ([1]; 288.15 K) [kg/m3] | surface tension liquid-gas ([1]; 293.15 K) [mN/m] | mass density ([1]; 293.15 K) [kg/m3] | surface tension liquid-gas ([1]; 298.15 K) [mN/m] | mass density ([1]; 298.15 K) [kg/m3] | surface tension liquid-gas ([1]; 303.15 K) [mN/m] | mass density ([1]; 303.15 K) [kg/m3] | surface tension liquid-gas ([1]; 308.15 K) [mN/m] | mass density ([1]; 308.15 K) [kg/m3] | surface tension liquid-gas ([1]; 313.15 K) [mN/m] | mass density ([1]; 313.15 K) [kg/m3] | surface tension liquid-gas ([1]; 318.15 K) [mN/m] | mass density ([1]; 318.15 K) [kg/m3] | surface tension liquid-gas ([2]; 288.15 K) [mN/m] | mass density ([2]; 288.15 K) [kg/m3] | surface tension liquid-gas ([2]; 293.15 K) [mN/m] | mass density ([2]; 293.15 K) [kg/m3] | surface tension liquid-gas ([2]; 298.15 K) [mN/m] | mass density ([2]; 298.15 K) [kg/m3] | further results
CCn1cc[n+](CCOC)c1.O=S(=O)([O-])C(F)(F)F | 36.3 ± 1.5 | 1348.94 ± 1.4 | 36.1 ± 1.5 | 1344.66 ± 1.4 | 35.8 ± 1.5 | 1340.41 ± 1.4 | 35.5 ± 1.5 | 1336.17 ± 1.4 | 35.3 ± 1.5 | 1331.96 ± 1.4 | 35.1 ± 1.5 | 1327.77 ± 1.4 | 34.9 ± 1.5 | 1323.6 ± 1.4 | – | – | – | – | – | – | –
CCO [ethanol] | 21.9 ± 1.5 | 794.308 ± 1.3 | 21.4 ± 1.5 | 790.041 ± 1.3 | 20.9 ± 1.5 | 785.746 ± 1.3 | 20.5 ± 1.5 | 781.43 ± 1.3 | 20 ± 1.5 | 777.078 ± 1.3 | 19.5 ± 1.5 | 772.688 ± 1.3 | 19 ± 1.5 | 768.257 ± 1.3 | – | – | – | – | – | – | –
CCO [ethanol] + CCn1cc[n+](CCOC)c1.O=S(=O)([O-])C(F)(F)F | – | – | – | – | – | – | – | – | – | – | – | – | – | – | 21.9 ± 1.5 | 794.308 ± 1.3 | 21.4 ± 1.5 | 790.041 ± 1.3 | 20.9 ± 1.5 | 785.746 ± 1.3 | surface tension liquid-gas ([2]; 303.15 K): 20.5 ± 1.5 mN/m; mass density ([2]; 303.15 K): 781.43 ± 1.3 kg/m3; surface tension liquid-gas ([2]; 308.15 K): 20 ± 1.5 mN/m; mass density ([2]; 308.15 K): 777.078 ± 1.3 kg/m3; surface tension liquid-gas ([2]; 313.15 K): 19.5 ± 1.5 mN/m; mass density ([2]; 313.15 K): 772.688 ± 1.3 kg/m3; surface tension liquid-gas ([2]; 318.15 K): 19 ± 1.5 mN/m; mass density ([2]; 318.15 K): 768.257 ± 1.3 kg/m3
CCCO [propan-1-ol] | 22.9 ± 1.5 | 807.507 ± 1.3 | 22.5 ± 1.5 | 803.519 ± 1.3 | 22.1 ± 1.5 | 799.514 ± 1.3 | 21.8 ± 1.5 | 795.48 ± 1.3 | 21.4 ± 1.5 | 791.416 ± 1.3 | 21 ± 1.5 | 787.306 ± 1.3 | 20.6 ± 1.5 | 783.149 ± 1.3 | – | – | – | – | – | – | –
CCCO [propan-1-ol] + CCn1cc[n+](CCOC)c1.O=S(=O)([O-])C(F)(F)F | – | – | – | – | – | – | – | – | – | – | – | – | – | – | 22.9 ± 1.5 | 807.507 ± 1.3 | 22.5 ± 1.5 | 803.519 ± 1.3 | 22.1 ± 1.5 | 799.514 ± 1.3 | surface tension liquid-gas ([2]; 303.15 K): 21.8 ± 1.5 mN/m; mass density ([2]; 303.15 K): 795.48 ± 1.3 kg/m3; surface tension liquid-gas ([2]; 308.15 K): 21.4 ± 1.5 mN/m; mass density ([2]; 308.15 K): 791.416 ± 1.3 kg/m3; surface tension liquid-gas ([2]; 313.15 K): 21 ± 1.5 mN/m; mass density ([2]; 313.15 K): 787.306 ± 1.3 kg/m3; surface tension liquid-gas ([2]; 318.15 K): 20.6 ± 1.5 mN/m; mass density ([2]; 318.15 K): 783.149 ± 1.3 kg/m3
CC(C)O [propan-2-ol] | 20.6 ± 1.5 | 789.224 ± 1.3 | 20.2 ± 1.5 | 785.088 ± 1.3 | 19.8 ± 1.5 | 780.887 ± 1.3 | 19.5 ± 1.5 | 776.617 ± 1.3 | 19.1 ± 1.5 | 772.266 ± 1.3 | 18.7 ± 1.5 | 767.829 ± 1.3 | 18.4 ± 1.5 | 763.293 ± 1.3 | – | – | – | – | – | – | –
CC(C)O [propan-2-ol] + CCn1cc[n+](CCOC)c1.O=S(=O)([O-])C(F)(F)F | – | – | – | – | – | – | – | – | – | – | – | – | – | – | 20.6 ± 1.5 | 789.224 ± 1.3 | 20.2 ± 1.5 | 785.088 ± 1.3 | 19.8 ± 1.5 | 780.887 ± 1.3 | surface tension liquid-gas ([2]; 303.15 K): 19.5 ± 1.5 mN/m; mass density ([2]; 303.15 K): 776.617 ± 1.3 kg/m3; surface tension liquid-gas ([2]; 308.15 K): 19.1 ± 1.5 mN/m; mass density ([2]; 308.15 K): 772.266 ± 1.3 kg/m3; surface tension liquid-gas ([2]; 313.15 K): 18.7 ± 1.5 mN/m; mass density ([2]; 313.15 K): 767.829 ± 1.3 kg/m3; surface tension liquid-gas ([2]; 318.15 K): 18.4 ± 1.5 mN/m; mass density ([2]; 318.15 K): 763.293 ± 1.3 kg/m3
